Data: US6303761A, “Triaminepentaacetic acid compound and paramagnetic metal complex prepared from using the compound as ligand” (Department of Health The Executive Yuan, Republic of China, priority 1999, dated 2001)
Read-outs that look alike come from different tables or passages of the source.

How the values were obtained:
[1] = type: physicochemical; conditions: pH 7.4, plasma concentrations of Ca^2+, Cu^2+ and Zn^2+
pM value, Cu^2+ = conditions: pH 7.4, TL 1.1×10^-5, TM 1.0×10^-6 mol dm^-3
[2] = Thermodynamic and conditional stability constants of the Ca^2+ complexes (potentiometric titration, program BEST); type: physicochemical; conditions: 25.0 ± 0.1° C., aqueous Me4 NNO3, I = 0.10 mol dm^-3
Protocol: (§1) The pH electrode was calibrated using two standard buffer solutions with pH 7.0±0.05 and pH 4.0±0.05 respectively. The ionic strength was 0.10 mol dm^-3 Me4 NNO3 ((CH3)4 NNO3). […] The titrant used was 0.1 mol dm^-3 NaOH with a titration amount of 0.005 ml/time.
(§2) (1) Direct Potentiometric Titration: The metal ion and ligand is mixed in 1:1 molar ratio.
(§3) (2) Ligand-ligand Competition Titration: The metal ion, ligand, and EDTA is mixed in 1:1:1 molar ratio.
(§4) M: metal ion, L: organic ligand, ML: metal complex The conditional stability constant is defined by equation (2): [formula]
(§5) The relationship between the conditional stability constant and the thermodynamic stability constant is defined by equation (3): [formula]
(§6) K2^H [H^+ ]^2 + . . . }^-1 =KthermαH

pM value, Ca^2+ = conditions: pH 7.4, TL 1.1×10^-5, TM 1.0×10^-6 mol dm^-3
[3] = Protonation constants of the organic ligands (potentiometric titration, program PKAS); type: physicochemical; conditions: for pKa: aqueous me4nno3, 25.0 ± 0.1° C., aqueous Me4 NNO3, I = 0.10 mol dm^-3
Protocol: The ionic strength was 0.10 mol dm^-3 Me4 NNO3 ((CH3)4 NNO3). […] The titrant used was 0.1 mol dm^-3 NaOH with a titration amount of 0.005 ml/time.

[4] = Selectivity constant of the ligand for Gd^3+ over Zn^2+; type: physicochemical
[5] = Selectivity constant of the ligand for Gd^3+ over Ca^2+; type: physicochemical
[6] = Thermodynamic and conditional stability constants of the Cu^2+ complexes (potentiometric titration, program BEST); type: physicochemical; conditions: 25.0 ± 0.1° C., aqueous Me4 NNO3, I = 0.10 mol dm^-3
Protocol: as §1, §2, §3, §4, §5, §6

[7] = Selectivity constant of the ligand for Gd^3+ over Cu^2+; type: physicochemical
[8] = Species distribution of the ligands at various pH values (SPE, SPEPLOT); type: physicochemical; conditions: 7.0×10^-3 mol dm^-3 system
Description: The average difference between observed and calculated -log[H^+ ] was <0.04 throughout all titrations.
When pH=7.0, the concentration of [H2 L]^3- is the maximum (97.5%). In the pH 3-5 range, the dominant species is the third protonated species [H3 L]^2-. When pH=3.7, the concentration of [H3 L]^2- is the maximum (87.75%). […] When pH=9.8, the concentration of [HL]^4- is the maximum (77.5%). In the pH 2-3 range, the dominant species is the fourth protonated species [H4 L]^-. When pH=2.3, the concentration of [H4 L]^- is the maximum (60.9%). In the pH range greater than 11, the dominant species is the deprotonated species [L]^5-.
When pH=2.7, the concentration of [H4 L]^- is the maximum (55.9%). In the pH 3.5-7 range, the dominant species is the third protonated species [H3 L]^2-. When pH=5, the concentration of [H3 L]^2- is the maximum (97.7%). In the pH 7-9 range, the dominant species is the second protonated species [H2 L]^3-. When pH=8.1, the concentration of [H2 L]^3- is the maximum (86.5%). […] When pH=9.9, the concentration of [HL]^4- is the maximum (71.6%). In the pH range greater than 12, the dominant species is the deprotonated species [L]^5-. In the pH range less than 2, the dominant species is the totally protonated species [H5 L].
When pH=2.8, the concentration of [H4 L]^- is the maximum (45.9%). In the pH 3.5-7.5 range, the dominant species is the third protonated species [H3 L]^2-. When pH=5.2, the concentration of [H3 L]^2- is the maximum (99.0%). In the pH 8-9.5 range, the dominant species is the second protonated species [H2 L]^3-. When pH=8.6, the concentration of [H2 L]^3- is the maximum (78.8%). In the pH 9.5-11 range, the dominant species is the first protonated species [HL]^4-. When pH=10.1, the concentration of [HL]^4- is the maximum (67.2%). In the pH range greater than 12, the dominant species is the deprotonated species [L]^5-. In the pH range less than 2, the dominant species is the totally protonated species [H5 L].

pM value, Zn^2+ = conditions: pH 7.4, TL 1.1×10^-5, TM 1.0×10^-6 mol dm^-3
pM value, Gd^3+ = conditions: pH 7.4, TL 1.1×10^-5, TM 1.0×10^-6 mol dm^-3
[9] = Thermodynamic and conditional stability constants of the Zn^2+ complexes (potentiometric titration, program BEST); type: physicochemical; conditions: 25.0 ± 0.1° C., aqueous Me4 NNO3, I = 0.10 mol dm^-3
Protocol: as §1, §2, §3, §4, §5, §6

With `O=C(O)CN(CCCN(CC(=O)O)CC(=O)O)CCN(CC(=O)O)CC(=O)O` [TTDA, 3,6,10-tri(carboxymethyl)-3,6,10-triazadodecanedioic acid] the “modified selectivity constant log K sel'” value [1] was 8.44, the “pM (Cu^2+)” value (pM value, Cu^2+) was 13.58 and the “log K [CaHL]/[CaL][H]” value [2] was 6.06. For the same compound, the “pM (Ca^2+)” value (pM value, Ca^2+) was 9.73, the “basicity, Σ PKa” value [3] was 27.44 and the pKa ([3]; read-out: first protonation constant log K1^H, [HL]/[L][H]) was 10.6. It also gave a pKa ([3]; read-out: fourth protonation constant log K4^H, [H4 L]/[H3 L][H]) of 2.8, a pKa ([3]; read-out: second protonation constant log K2^H, [H2 L]/[HL][H]) of 8.92 and a pKa ([3]; read-out: third protonation constant log K3^H, [H3 L]/[H2 L][H]) of 5.12. For the same compound, the “selectivity constant log K(Gd/Zn)” value [4] was 4.18, the “selectivity constant log K(Gd/Ca)” value [5] was 8.32 and the “log K [CuHL]/[CuL][H]” value [6] was 5.52. The “log K [CuL]/[Cu][L]” value [6] was 19.31, the “log K [GdL]/[Gd][L]” value (25.0 ± 0.1° C., aqueous Me4 NNO3, I = 0.10 mol dm^-3) was 22.77 and the “conditional stability constant log KGdL'” value (pH 7.4) was 18.04. For the same compound, the “selectivity constant log K(Gd/Cu)” value [7] was 3.46, the “maximum concentration of first protonated species [HL]^4-” value [8] was 77.5% and the “maximum concentration of fourth protonated species [H4 L]^-” value [8] was 60.9%. For the same compound, the “maximum concentration of second protonated species [H2 L]^3-” value [8] was 97.5%, the “maximum concentration of third protonated species [H3 L]^2-” value [8] was 87.75% and the “pH of maximum concentration of [H2 L]^3-” value [8] was 7.0 pH. The “pH of maximum concentration of [H3 L]^2-” value [8] was 3.7 pH, the “pH of maximum concentration of [H4 L]^-” value [8] was 2.3 pH and the “pH of maximum concentration of [HL]^4-” value [8] was 9.8 pH. For the same compound, the “pH range in which [H2 L]^3- is dominant” value [8] was 5-9 pH, the “pH range in which [H3 L]^2- is dominant” value [8] was 3-5 pH and the “pH range in which [H4 L]^- is dominant” value [8] was 2-3 pH. The “pH range in which [HL]^4- is dominant” value [8] was 9-10.5 pH, the “pH range in which deprotonated species [L]^5- is dominant” value [8] was “greater than 11 pH” and the “pM (Zn^2+)” value (pM value, Zn^2+) was 13.22. The “pM (Gd^3+)” value (pM value, Gd^3+) was 17.03 and the “log K [ZnHL]/[ZnL][H]” value [9] was 7.41.
